Experimental data published in ChEMBL document CHEMBL5653631, “A Potent and Selective ULK1 Inhibitor Suppresses Autophagy and Sensitizes Cancer Cells to Nutrient Stress” (iScience, 2018).
Values belong to the compound of their own block, whether it stands above or below them.

Legend:
[1] = biological target: Serine/threonine-protein kinase Nek7 (Homo sapiens) (UniProt Q8TDX7); assay: Inhibition of human recombinant NEK7 at 500 nM related to control ULK1
[2] = biological target: Homeodomain-interacting protein kinase 3 (Homo sapiens) (UniProt Q9H422); assay: Inhibition of human recombinant HIPK3 at 40 nM related to control ULK1
[3] = biological target: T1, Ephrin type-A receptor 1 (Homo sapiens) (UniProt P21709); assay: Inhibition of human recombinant EphA1 at 40 nM related to control ULK1
T1 sequence (whole entry): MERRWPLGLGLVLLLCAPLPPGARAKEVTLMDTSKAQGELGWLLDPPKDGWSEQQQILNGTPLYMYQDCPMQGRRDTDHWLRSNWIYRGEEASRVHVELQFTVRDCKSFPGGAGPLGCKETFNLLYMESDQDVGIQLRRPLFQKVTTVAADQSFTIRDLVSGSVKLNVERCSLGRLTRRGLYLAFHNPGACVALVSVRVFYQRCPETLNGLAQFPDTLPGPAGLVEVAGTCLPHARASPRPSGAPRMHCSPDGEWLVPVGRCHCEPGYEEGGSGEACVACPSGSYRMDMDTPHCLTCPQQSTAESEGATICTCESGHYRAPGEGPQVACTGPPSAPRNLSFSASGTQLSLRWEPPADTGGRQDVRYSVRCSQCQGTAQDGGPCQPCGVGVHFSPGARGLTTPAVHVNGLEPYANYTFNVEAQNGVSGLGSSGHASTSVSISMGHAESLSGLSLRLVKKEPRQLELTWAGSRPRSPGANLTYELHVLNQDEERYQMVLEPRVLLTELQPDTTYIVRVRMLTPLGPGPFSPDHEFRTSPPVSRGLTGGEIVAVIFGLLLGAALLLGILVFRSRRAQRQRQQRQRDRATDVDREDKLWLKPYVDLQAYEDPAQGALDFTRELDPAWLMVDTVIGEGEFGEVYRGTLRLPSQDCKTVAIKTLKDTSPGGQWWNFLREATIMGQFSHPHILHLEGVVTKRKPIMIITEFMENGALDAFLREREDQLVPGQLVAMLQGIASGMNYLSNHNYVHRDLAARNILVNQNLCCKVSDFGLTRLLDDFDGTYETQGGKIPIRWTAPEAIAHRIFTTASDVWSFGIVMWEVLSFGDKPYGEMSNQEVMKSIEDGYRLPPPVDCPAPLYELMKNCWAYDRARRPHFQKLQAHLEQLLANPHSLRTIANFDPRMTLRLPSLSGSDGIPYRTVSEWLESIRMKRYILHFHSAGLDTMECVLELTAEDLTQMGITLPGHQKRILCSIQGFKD

[4] = biological target: T2, Serine/threonine-protein kinase TAO2 (Homo sapiens) (UniProt Q9UL54); assay: Inhibition of human recombinant TAO2 at 15 nM in presence of ATP by radiometric assay relative to control
T2 sequence (whole entry): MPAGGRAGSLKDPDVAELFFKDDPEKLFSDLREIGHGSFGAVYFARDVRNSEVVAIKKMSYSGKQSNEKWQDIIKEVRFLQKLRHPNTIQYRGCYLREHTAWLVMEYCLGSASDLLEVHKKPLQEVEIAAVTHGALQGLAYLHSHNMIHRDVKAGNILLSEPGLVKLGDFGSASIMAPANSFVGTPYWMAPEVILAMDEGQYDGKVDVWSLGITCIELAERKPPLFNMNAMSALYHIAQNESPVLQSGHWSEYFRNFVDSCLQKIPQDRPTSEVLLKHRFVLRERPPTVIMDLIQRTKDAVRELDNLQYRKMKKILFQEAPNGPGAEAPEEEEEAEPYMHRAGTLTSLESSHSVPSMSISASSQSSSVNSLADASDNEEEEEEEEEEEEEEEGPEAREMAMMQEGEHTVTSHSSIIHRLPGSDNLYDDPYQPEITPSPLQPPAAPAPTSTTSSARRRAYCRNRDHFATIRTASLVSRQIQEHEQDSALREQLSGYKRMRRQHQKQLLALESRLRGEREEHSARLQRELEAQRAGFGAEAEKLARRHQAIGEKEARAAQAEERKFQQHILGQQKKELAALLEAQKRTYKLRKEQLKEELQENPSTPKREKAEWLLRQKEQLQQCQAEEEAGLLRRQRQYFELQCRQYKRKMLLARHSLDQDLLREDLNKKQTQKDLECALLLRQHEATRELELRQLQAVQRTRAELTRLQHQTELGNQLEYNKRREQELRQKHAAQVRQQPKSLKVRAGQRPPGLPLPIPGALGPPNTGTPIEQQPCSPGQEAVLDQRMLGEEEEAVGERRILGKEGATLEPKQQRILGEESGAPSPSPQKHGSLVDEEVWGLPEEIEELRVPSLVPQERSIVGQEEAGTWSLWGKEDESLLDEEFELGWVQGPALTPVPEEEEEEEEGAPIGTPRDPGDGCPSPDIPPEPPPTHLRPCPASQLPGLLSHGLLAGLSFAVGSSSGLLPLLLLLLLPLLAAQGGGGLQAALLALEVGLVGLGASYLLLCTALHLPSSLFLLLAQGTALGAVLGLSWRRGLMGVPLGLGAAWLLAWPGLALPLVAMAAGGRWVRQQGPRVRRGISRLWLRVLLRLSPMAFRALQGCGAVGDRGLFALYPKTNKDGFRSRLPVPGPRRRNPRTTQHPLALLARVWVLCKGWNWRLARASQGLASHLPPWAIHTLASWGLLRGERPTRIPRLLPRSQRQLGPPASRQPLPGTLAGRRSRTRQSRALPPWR

[5] = tested on: G protein-coupled receptor kinase 7 (Homo sapiens); assay: Inhibition of human recombinant GPRK7 at 15 nM in presence of ATP by radiometric assay relative to control

Serine/threonine-protein kinase Nek7 (Homo sapiens), sequence (Q8TDX7 whole entry, looked up): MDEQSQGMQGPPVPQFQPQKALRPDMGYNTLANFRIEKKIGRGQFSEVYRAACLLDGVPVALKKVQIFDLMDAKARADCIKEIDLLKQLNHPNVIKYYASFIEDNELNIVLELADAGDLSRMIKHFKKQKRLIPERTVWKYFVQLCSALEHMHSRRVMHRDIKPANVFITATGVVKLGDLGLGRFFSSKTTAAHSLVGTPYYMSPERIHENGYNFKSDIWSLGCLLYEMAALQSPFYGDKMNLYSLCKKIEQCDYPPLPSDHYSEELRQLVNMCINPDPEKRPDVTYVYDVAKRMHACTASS
Homeodomain-interacting protein kinase 3 (Homo sapiens), sequence (Q9H422 whole entry, looked up): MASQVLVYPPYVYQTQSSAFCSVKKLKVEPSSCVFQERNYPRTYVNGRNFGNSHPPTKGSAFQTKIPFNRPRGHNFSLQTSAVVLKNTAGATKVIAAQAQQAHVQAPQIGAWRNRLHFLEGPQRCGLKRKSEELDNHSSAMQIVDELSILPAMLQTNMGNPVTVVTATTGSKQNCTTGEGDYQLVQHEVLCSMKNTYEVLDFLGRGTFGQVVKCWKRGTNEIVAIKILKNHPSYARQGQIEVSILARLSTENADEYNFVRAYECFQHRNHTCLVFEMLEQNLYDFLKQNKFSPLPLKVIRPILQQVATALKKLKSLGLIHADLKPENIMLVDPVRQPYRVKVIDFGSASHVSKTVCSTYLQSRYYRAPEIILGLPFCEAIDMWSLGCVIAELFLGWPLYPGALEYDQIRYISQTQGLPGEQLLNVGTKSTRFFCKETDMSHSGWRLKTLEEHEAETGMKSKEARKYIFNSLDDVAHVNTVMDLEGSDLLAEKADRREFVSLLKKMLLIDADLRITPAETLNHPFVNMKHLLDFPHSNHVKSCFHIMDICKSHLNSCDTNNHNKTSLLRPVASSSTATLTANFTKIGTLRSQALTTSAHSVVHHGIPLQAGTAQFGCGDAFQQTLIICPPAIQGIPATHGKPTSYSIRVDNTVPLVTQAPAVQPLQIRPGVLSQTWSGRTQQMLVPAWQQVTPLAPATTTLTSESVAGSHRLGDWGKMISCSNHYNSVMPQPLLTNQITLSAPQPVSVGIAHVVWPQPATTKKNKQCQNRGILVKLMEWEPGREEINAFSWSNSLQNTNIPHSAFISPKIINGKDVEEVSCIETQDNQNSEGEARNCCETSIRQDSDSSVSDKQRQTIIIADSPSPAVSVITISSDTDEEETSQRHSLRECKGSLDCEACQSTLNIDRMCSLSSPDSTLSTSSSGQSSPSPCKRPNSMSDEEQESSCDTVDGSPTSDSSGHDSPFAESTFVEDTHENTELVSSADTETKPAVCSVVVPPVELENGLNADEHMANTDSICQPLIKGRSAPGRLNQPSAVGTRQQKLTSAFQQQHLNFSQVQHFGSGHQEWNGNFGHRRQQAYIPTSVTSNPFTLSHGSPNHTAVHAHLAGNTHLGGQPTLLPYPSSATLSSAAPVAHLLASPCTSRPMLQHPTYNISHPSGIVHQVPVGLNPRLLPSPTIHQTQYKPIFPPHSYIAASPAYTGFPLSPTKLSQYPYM

- fold change (FC) [1]: 0
Structure (SMILES): CNC(=O)c1ccccc1Oc1nc(Nc2cc(OC)c(OC)c(OC)c2)ncc1Br

- fold change (FC) [2]: 0.07
- fold change (FC) [3]: 0
Structure (SMILES): O=C(N[C@@H](C1CC1)C(F)(F)F)c1cc(-c2cnn3cc(-c4ccc(F)cc4)cnc23)cs1

- inhibition [4]: 0%
- inhibition [5]: 0%
Structure (SMILES): CC(C)[C@H](NC(=O)c1cc(-c2cnn3cc(-c4ccc(OCCN5CCCCC5)cc4)cnc23)cs1)C(F)(F)F
